Patent publication US20250352615A1, “COMPOSITIONS AND METHODS FOR THE MODULATION OF PIEZO1 AND TRPV4” (Duke University, priority 2021, published 2025)

Key:
Piezo1 = target: T1, Piezo1 (Homo sapiens, UniProt Q92508); assay: Calcium imaging of Piezo1-mediated [Ca2+]i in human PSCs; assay type: cell-based; details: Yoda1 25 μM, quiescent PSCs
T1 construct: Fresh, human pancreatic tissue was digested with collagenase as described above with modifications; endogenous in cells; host or cells: primary human pancreatic stellate cells from fresh human pancreatic tissue
Protocol: (§1) Mouse and human PSCs were isolated using collagenase digestion. Modified Krebs Henseleit Buffer (KHB) solution (100 mL) was prepared as previously described by Romac et al., Nat. Commun. 9(1):1715 (2018). Pancreatic tissue was digested with 2 mg of collagenase NB 8 (SERVA, catalog 17456) dissolved in 10 mL of modified KHB solution containing 1 mg soybean trypsin inhibitor (SBTI 1-S; Millipore Sigma, catalog T9003) and 20 mg BSA (Thermo Fisher Scientific; BP1600-100). Digestion solution (5 mL) was used to inflate the pancreas. Pancreas with 5 mL of digestion solution was incubated in a shaking water bath for 10 minutes at 37° C. The solution was then discarded. The pancreas tissue was cut into small pieces and digested with fresh 5 mL digestion buffer. Tissue was incubated in a shaking water bath for 40 minutes at 37° C. The cells were then separated from tissue by pipetting up-down with a 10 mL pipette and passed sequentially through a 70 μm and a 40 μm cell strainer. The filtrate was centrifuged at 150×g for 3 minutes at room temperature. The cells were washed with 10 mL Leibovitz's media (Thermo Fisher Scientific, catalog 11415-064), passed through a 20 μm filter, and centrifuged at 80×g for 3 minutes at room temperature. The supernate was removed, and isolated stellate cells were plated on a thin-layered Matrigel-coated glass bottom culture plate (MatTek, P35G-0-14-C). […] The cell viability following Yoda1 treatment was analyzed using the Live/Dead cell imaging kit (Thermo Fisher Scientific, catalog R37601). […]
Fluid shear stress and mechanical pushing applied to stellate cells were achieved as previously described by Wang et al., J. Clin. Invest. […] The fluid shear stress (T) was calculated using the formula: τ=η×[…] φ for μ-Slide I 0.4 Luer and τ=η×330.4 φ for μ-Slide I 0.2 Luer, where r represents viscosity of the medium and φ represents flow rate (according to the manufacturer's instructions, Ibidi). […]

mouse PSCs = assay: Mouse PSC activation and fibrogenic response; assay type: cell-based; details: Yoda1 25 μM
Protocol: as §1, with “P35G-0-14-C). Before plating the cells, Matrigel solution (Corning, catalog 354234) at a ratio of 1.5:100 DMEM/F12 (Thermo Fisher Scientific, catalog 11330-032) was poured onto the culture plate and incubated for 2 hr at 37° C. to form a thin layer of Matrigel coating. Matrigel mixture was removed, and the plate was washed with PBS before cells were plated. Cell culture media, DMEM/F12 with 5% FBS was used for mouse stellate cells. Fresh, human pancreatic tissue was digested with collagenase as described above with modifications.” for “P35G-0-14-C).”

T1 sequence (Q92508 whole entry): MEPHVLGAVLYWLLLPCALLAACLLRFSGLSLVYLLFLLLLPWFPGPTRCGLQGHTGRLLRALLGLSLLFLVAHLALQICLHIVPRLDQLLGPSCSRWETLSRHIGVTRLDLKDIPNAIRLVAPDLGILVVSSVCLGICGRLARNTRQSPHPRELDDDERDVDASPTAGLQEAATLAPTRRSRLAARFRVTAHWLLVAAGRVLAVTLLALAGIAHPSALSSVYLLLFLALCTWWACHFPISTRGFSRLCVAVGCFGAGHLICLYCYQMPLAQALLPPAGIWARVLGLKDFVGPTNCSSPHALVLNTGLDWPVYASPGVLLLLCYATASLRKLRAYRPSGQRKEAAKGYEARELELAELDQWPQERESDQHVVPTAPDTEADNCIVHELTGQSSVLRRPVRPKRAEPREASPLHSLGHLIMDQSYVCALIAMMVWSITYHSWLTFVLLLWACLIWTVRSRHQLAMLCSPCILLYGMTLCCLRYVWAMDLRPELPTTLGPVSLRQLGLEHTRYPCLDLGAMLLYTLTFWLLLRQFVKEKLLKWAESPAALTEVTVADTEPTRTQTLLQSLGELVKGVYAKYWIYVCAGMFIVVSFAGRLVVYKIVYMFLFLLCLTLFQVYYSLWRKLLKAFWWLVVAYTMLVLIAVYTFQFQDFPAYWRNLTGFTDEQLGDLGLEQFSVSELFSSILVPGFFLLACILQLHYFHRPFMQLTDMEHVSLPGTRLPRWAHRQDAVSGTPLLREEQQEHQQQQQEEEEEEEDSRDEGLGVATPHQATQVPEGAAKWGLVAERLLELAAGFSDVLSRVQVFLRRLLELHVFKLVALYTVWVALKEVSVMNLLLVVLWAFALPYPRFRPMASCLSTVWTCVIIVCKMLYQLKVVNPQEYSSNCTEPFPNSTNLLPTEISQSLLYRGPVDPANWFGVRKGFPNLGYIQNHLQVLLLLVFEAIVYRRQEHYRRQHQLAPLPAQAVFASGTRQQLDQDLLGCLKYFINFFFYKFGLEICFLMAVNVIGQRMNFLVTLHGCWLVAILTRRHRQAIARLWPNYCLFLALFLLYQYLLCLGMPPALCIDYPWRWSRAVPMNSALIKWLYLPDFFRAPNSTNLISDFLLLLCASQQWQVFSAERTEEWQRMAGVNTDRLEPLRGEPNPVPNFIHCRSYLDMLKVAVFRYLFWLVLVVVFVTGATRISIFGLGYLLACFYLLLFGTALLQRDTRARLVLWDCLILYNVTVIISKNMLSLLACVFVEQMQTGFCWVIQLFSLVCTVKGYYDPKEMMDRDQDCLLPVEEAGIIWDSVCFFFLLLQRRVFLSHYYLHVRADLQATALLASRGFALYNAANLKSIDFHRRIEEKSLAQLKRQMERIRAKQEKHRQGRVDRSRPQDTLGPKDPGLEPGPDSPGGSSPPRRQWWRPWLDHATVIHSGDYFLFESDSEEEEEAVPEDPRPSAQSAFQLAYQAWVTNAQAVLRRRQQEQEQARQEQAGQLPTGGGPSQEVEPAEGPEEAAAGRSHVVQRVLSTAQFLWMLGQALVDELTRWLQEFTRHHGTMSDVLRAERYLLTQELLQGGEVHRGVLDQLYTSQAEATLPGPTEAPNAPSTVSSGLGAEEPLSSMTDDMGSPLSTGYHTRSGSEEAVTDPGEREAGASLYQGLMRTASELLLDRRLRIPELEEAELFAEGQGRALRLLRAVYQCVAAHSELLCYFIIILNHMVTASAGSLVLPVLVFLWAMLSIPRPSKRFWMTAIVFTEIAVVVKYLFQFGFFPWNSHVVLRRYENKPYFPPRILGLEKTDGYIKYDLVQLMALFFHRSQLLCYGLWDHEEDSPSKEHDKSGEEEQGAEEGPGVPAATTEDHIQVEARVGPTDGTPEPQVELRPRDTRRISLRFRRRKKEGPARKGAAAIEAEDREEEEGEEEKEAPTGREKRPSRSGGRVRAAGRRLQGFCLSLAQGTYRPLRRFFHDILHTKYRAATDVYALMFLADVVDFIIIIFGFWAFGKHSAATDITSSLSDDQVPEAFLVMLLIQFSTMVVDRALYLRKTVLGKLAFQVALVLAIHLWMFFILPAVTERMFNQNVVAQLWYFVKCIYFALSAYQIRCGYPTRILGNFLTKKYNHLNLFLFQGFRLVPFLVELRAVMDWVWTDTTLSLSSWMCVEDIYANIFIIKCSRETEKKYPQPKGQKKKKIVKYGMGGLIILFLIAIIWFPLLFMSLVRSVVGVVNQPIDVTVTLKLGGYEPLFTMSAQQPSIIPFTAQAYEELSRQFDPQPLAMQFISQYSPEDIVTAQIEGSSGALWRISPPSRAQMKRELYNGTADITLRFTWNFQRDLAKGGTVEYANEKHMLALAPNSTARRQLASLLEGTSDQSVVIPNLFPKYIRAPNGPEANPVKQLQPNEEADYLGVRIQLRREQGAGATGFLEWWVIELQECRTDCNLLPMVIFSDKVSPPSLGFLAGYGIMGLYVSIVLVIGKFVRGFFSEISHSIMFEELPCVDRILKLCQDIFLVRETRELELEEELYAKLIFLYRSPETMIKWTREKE

SMILES: Clc1cccc(Cl)c1CSc1nnc(-c2cnccn2)s1 [Yoda1]
- [Ca2+]i response to Yoda1 (Piezo1): caused calcium overload in quiescent pancreatic stellate cells
- activation of PSCs from TRPV4-KO mice (cell shape, perinuclear fat droplets, ECM protein expression) (mouse PSCs): did not activate PSCs from TRPV4-KO mice
- effects of Yoda1 on fibrosis in Piezo1-deleted PSCs (mouse PSCs; Piezo1GFAP-KO PSCs): prevented in Piezo1-deleted PSCs
- PSC activation phenotype (mouse PSCs; WT mouse PSCs): converted mouse PSCs to an activated phenotype with reduced perinuclear fat droplets, changes in cell shape, and increased fibronectin and collagen type I
